Laboratory results from patent US7098247B2, “Arylene-carboxylic acid (2-amino-phenyl)-amide derivatives” (Hoffmann-La Roche Inc., priority 2002, dated 2006).

Tested on: histone deacetylase (HDAC)
Experiment: cellular acetylation assay (acetylation of histones monitored in PC3 cells, ELISA)
Format: cell-based
Details: PC3 human prostate carcinoma cells; compound 1 uM; 24 h incubation; antibodies against acetylated histone H3 or H4
Description: Therein, acetylation of histones is monitored in PC3 cells. High acetylation means inhibition of histone deacetylase by compounds. Cell viability is monitored in parallel to estimate the cytotoxicity of the compounds.
PC3 cells, human prostate carcinoma cells, are seeded as 1800 cells per well of 384-well microtiterplate in RPMI 1640 (including 5% FCS, 2 mM glutamine and pen/strep). After 48 h at 37° C., pre-diluted compounds are added at a final concentration of 1 uM. Compounds are pre-diluted 1:10 in dimethyl sulfoxide (DMSO) or medium resulting in a final concentration of DMSO of 0.5%.
After 24 h, incubation the cell viability is determined by adding cell proliferation reagent WST1. Another 60 min. later, the optical density (OD) is measured (450 nm versus 690 nm).
After WST1 assay, the cell layer is prepared for the ELISA reaction. Medium is aspirated and cells are fixed in ethanol at −20° C. for 60 min. After washing with PBS/Tween, the blocking solution (PBS/ 5% FCS/Tween) is added and the cell layer is washed again. Antibodies against histone H3 or H4 (Anti-Acetylated Histone (rabbit polyclonal IgG), Upstate Biotechnologie) are added at a dilution of 1:200 for 60 min at 37° C. As a second antibody, goat anti-rabbit IgG(H+L) human IgG adsorbed-HRP conjugate (Dako) is used (1:2000 diluted). Cells are washed 3 times and the peroxidase substrate ABTS is allowed to react for 30–60 min at 37° C. Oxalic acid stops the reaction, and the OD is measured at 405 nm.
The percentage of acetylation is calculated after subtraction of blank O.D.s: […]

SMILES	cell acetylation (PC3, 1 μM) [% of control]
CC(=O)Nc1ccc(C(=O)Nc2ccccc2N)cc1 [CI 994, reference compound]	152 % of control
Nc1ccccc1NC(=O)c1ccc(CNC(=O)C2CCCC2)s1 [Example 4-1, 5-[(Cyclopentanecarbonyl-amino)-methyl]-thiophene-2-carboxylic acid (2-amino-phenyl)-amide]	170 % of control
CCOCC(=O)NCc1ccc(C(=O)Nc2ccccc2N)s1 [Example 4-3, 5-[(2-Ethoxy-acetylamino)-methyl]-thiophene-2-carboxylic acid (2-amino-phenyl)-amide]	194 % of control
CCCC(=O)NCc1ccc(C(=O)Nc2ccccc2N)s1 [Example 4-6, 5-(Butyrylamino-methyl)-thiophene-2-carboxylic acid (2-amino-phenyl)-amide]	238 % of control
Nc1ccccc1NC(=O)c1ccc(CNC(=O)CC2C=CCC2)cc1 (stereo not drawn) [Example 4-31, N-(2-Amino-phenyl)-4-[(2-cyclopent-2-enyl-acetylamino)-methyl]-benzamide]	176 % of control
CCC(C)CNC(=O)NCc1ccc(C(=O)Nc2ccccc2N)s1 (stereo not drawn) [Example 6-8, 5-[3-(2-Methyl-butyl)-ureidomethyl]-thiophene-2-carboxylic acid (2-amino-phenyl)-amide]	198 % of control
C=CCNC(=O)NCc1ccc(C(=O)Nc2ccccc2N)s1 [Example 6-12, 5-[(3-Allyl-ureido)-methyl]-thiophene-2-carboxylic acid (2-amino-phenyl)-amide]	170 % of control
CC(C)CNC(=O)NCc1ccc(C(=O)Nc2ccccc2N)s1 [Example 6-13, 5-(3-Isobutyl-ureidomethyl)-thiophene-2-carboxylic acid (2-amino-phenyl)-amide]	178 % of control
CN(C)CC(C)(C)CNC(=O)NCc1ccc(C(=O)Nc2ccccc2N)cc1 [Example 6-19, N-(2-Amino-phenyl)-4-[3-(3-dimethylamino-2,2-dimethyl-propyl)-ureidomethyl]-benzamide]	205 % of control
CCCCCC(C)NC(=O)NCc1ccc(C(=O)Nc2ccccc2N)cc1 (stereo not drawn) [Example 6-25, N-(2-Amino-phenyl)-4-[3-(1-methyl-hexyl)-ureidomethyl]-benzamide]	192 % of control
CCOCCCNC(=O)NCc1ccc(C(=O)Nc2ccccc2N)cc1 [Example 6-26, N-(2-Amino-phenyl)-4-[3-(3-ethoxy-propyl)-ureidomethyl]-benzamide]	179 % of control
C=CCNC(=O)NCc1ccc(C(=O)Nc2ccccc2N)cc1 [Example 6-27, 4-[(3-Allyl-ureido)-methyl]-N-(2-amino-phenyl)-benzamide]	175 % of control
CC(C)OCCCNC(=O)NCc1ccc(C(=O)Nc2ccccc2N)cc1 [Example 6-28, N-(2-Amino-phenyl)-4-[3-(3-isopropoxy-propyl)-ureidomethyl]-benzamide]	177 % of control
Nc1ccccc1NC(=O)c1ccc(CNC(=O)NCC2CC2)cc1 [Example 6-29, N-(2-Amino-phenyl)-4-(3-cyclopropylmethyl-ureidomethyl)-benzamide]	187 % of control
CCCCCNC(=O)NCc1ccc(C(=O)Nc2ccccc2N)cn1 [Example 6-38, N-(2-Amino-phenyl)-6-[(3-pentyl-ureido)-methyl]-nicotinamide]	178 % of control
